Eleven molecules from ChEMBL document CHEMBL1201862, “PubChem BioAssay data set” (2004) can be followed below.

Some test systems named below: A498; A549; CAKI-1; DU-145; EKVX; HL-60; HT-29; IGROV-1; K562; LOX IMVI; MCF7; MDA-MB-231; NCI-H522; NCI/ADR-RES; RXF 393; SF-268; SF-295; SN12C; SNB-75; HOP-92.
Common to all, as to experiment: DTP human tumour cell line panel, 48 h

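A five-concentration, 48-hour dose response in 96-well plates underlies each endpoint, interpolated linearly between surrounding concentrations. Here, GI50 denotes the concentration required for 50% inhibition of growth.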 Calls of active or inactive are those of the source. No stated cut-off is given here; in the data, active = GI50 up to about 1.1 µM and inactive = higher.

A word on the GI50: it is the concentration giving 50% growth inhibition. Consider `Cc1ccc(C(=O)OC[C@H]2CC[C@@H](n3cc(N(C)C4CCCCC4)c(=O)[nH]c3=O)O2)cc1`, for which the GI50 in the test on A498 is 19.5 µM (inactive); in the test with A549, 28.7 µM (inactive); in the test with CAKI-1, 31.4 µM (inactive); in the test on DU-145, > 100 µM (inactive); in the test with EKVX it was 38.9 µM (inactive); with HL-60, 27.9 µM (inactive). For the same molecule, the GI50 in the test with HT-29 is 18.5 µM (inactive); in the test with IGROV-1 it was 33.4 µM (inactive); in the test on K562, 38 µM (inactive); in the test on LOX IMVI it was 19.1 µM (inactive); in the test on MCF7, 22.1 µM (inactive); in the test on MDA-MB-231 it was 14.9 µM (inactive). The GI50 in the test with NCI-H522 was 24.3 µM (inactive); in the test on NCI/ADR-RES it was 20 µM (inactive); with RXF 393 it was 16.7 µM (inactive); in the test with SF-268, 28 µM (inactive); with SF-295, 15.7 µM (inactive); in the test on SN12C it was 20.7 µM (inactive).
As for `S=C(c1c[nH]c2ccccc12)N1CCN(c2ccccc2)CC1`, the GI50 was > 100 µM (inactive) in the test with A498; > 100 µM (inactive) with CAKI-1; > 100 µM (inactive) in the test on DU-145; 19.4 µM (inactive) in the test with EKVX; > 100 µM (inactive) in the test with HL-60; 59.6 µM (inactive) in the test with HT-29. The GI50 in the test with IGROV-1 is 7.11 µM (inactive); in the test on K562, > 100 µM (inactive); with LOX IMVI, > 100 µM (inactive); in the test on MCF7 it was > 100 µM (inactive); with MDA-MB-231, > 100 µM (inactive); with NCI/ADR-RES, 34.9 µM (inactive). In addition, the GI50 is > 100 µM (inactive) in the test with RXF 393; 19.8 µM (inactive) in the test with SF-268; 79.8 µM (inactive) in the test on SF-295; 21.8 µM (inactive) with SN12C; 0.403 µM (active) in the test on SNB-75.
With `c1ccc2c(c1)nc1n2sc2nc3ccccc3n21`, the GI50 is > 100 µM (inactive) in the test with A549; > 100 µM (inactive) in the test with CAKI-1; > 100 µM (inactive) in the test with DU-145; 54 µM (inactive) in the test on EKVX; > 100 µM (inactive) with HL-60; > 100 µM (inactive) with HOP-92. The GI50 is > 100 µM (inactive) in the test with HT-29; > 100 µM (inactive) in the test with IGROV-1; > 100 µM (inactive) with K562; > 100 µM (inactive) with LOX IMVI; 35.6 µM (inactive) with MCF7; > 100 µM (inactive) with MDA-MB-231. In addition, the GI50 was 34.9 µM (inactive) in the test with NCI-H522; > 100 µM (inactive) in the test with NCI/ADR-RES; > 100 µM (inactive) in the test with SF-268; > 100 µM (inactive) in the test on SF-295; > 100 µM (inactive) with SN12C.
Take `CCCCCCCCCCCCCC(=O)CBr`: the GI50 in the test with A498 was 17.4 µM (inactive); in the test with A549, 22.5 µM (inactive); in the test on CAKI-1, 1.1 µM (active); with DU-145 it was 18.6 µM (inactive); in the test on EKVX, 18.7 µM (inactive); with HL-60 it was 1.03 µM (active). For the same molecule, the GI50 was 2.36 µM (inactive) in the test with HOP-92; 15.9 µM (inactive) with HT-29; 5.79 µM (inactive) with IGROV-1; 3.53 µM (inactive) in the test with K562; 3.83 µM (inactive) with LOX IMVI; 13.4 µM (inactive) in the test with MCF7. The GI50 was 16.3 µM (inactive) in the test on MDA-MB-231; 1.84 µM (inactive) with NCI-H522; 3.3 µM (inactive) with RXF 393; 12.2 µM (inactive) in the test on SF-268; 15.4 µM (inactive) in the test on SF-295; 16.6 µM (inactive) with SN12C. The GI50 in the test with SNB-75 was 6.03 µM (inactive).
On to `CC1C(O)Oc2cc3c(cc2C1c1ccccc1O)OCO3` (configuration not stated), for which the GI50 is 29.6 µM (inactive) with A498; 30.1 µM (inactive) with A549; 29.2 µM (inactive) in the test on CAKI-1; 40.6 µM (inactive) in the test on DU-145; 43.6 µM (inactive) with EKVX; 17.9 µM (inactive) with HL-60. Besides, the GI50 in the test on HOP-92 is 15.2 µM (inactive); in the test on HT-29, 23.3 µM (inactive); with IGROV-1, 28 µM (inactive); with K562, 17.6 µM (inactive); in the test with LOX IMVI it was 31.6 µM (inactive); in the test with MCF7 it was 38.1 µM (inactive). The GI50 in the test on MDA-MB-231 is 34.6 µM (inactive); in the test on NCI-H522 it was 17.1 µM (inactive); in the test on RXF 393 it was 14.3 µM (inactive); in the test on SF-268 it was 36.1 µM (inactive); in the test with SF-295 it was 21.2 µM (inactive); in the test on SN12C it was 39.2 µM (inactive). Besides, in the test with SNB-75, the GI50 was 24.6 µM (inactive).
As for `COC(=O)CCC(=O)c1ccc2c(c1)CC1(Cc3ccccc3C1)C2`, the GI50 in the test on A498 was 48.6 µM (inactive); with A549 it was 54.7 µM (inactive); with EKVX, > 100 µM (inactive); in the test on HOP-92 it was 31.3 µM (inactive); with HT-29, 20.1 µM (inactive); with IGROV-1, > 100 µM (inactive). Moreover, the GI50 is 0.218 µM (active) in the test on K562; 36.2 µM (inactive) in the test on LOX IMVI; 85.5 µM (inactive) in the test with MCF7; > 100 µM (inactive) in the test with MDA-MB-231; 33.4 µM (inactive) in the test on NCI-H522; 64 µM (inactive) in the test with NCI/ADR-RES. Moreover, the results for the GI50 in the test with RXF 393, in the test on SF-295 and in the test with SN12C were > 100 µM (inactive), 38 µM (inactive) and 82.6 µM (inactive), respectively.
With `Cc1ccc(Cl)c2[nH]c(-c3ccccc3)cc(=O)c12`, the GI50 was 25.6 µM (inactive) in the test on A498; 24.1 µM (inactive) with A549; 43.7 µM (inactive) with DU-145; 6.41 µM (inactive) with EKVX; 23 µM (inactive) in the test with HL-60; 43.5 µM (inactive) in the test with HT-29. For the same molecule, the GI50 in the test with IGROV-1 is 33.7 µM (inactive); with K562, 30.1 µM (inactive); with LOX IMVI, 22.5 µM (inactive); in the test with MCF7, 3.18 µM (inactive); in the test on MDA-MB-231 it was 38.9 µM (inactive); in the test on NCI-H522, 57.1 µM (inactive). Besides, the GI50 was 57.4 µM (inactive) in the test with NCI/ADR-RES; 44 µM (inactive) in the test with RXF 393; 14.8 µM (inactive) in the test with SF-268; 63.5 µM (inactive) with SF-295; 46.5 µM (inactive) in the test on SN12C; 36.1 µM (inactive) in the test with SNB-75.
Consider `CC(=O)OCC1=C(C)C(OC(=O)C(OC(C)=O)[C@@H](NC(=O)c2ccccc2)c2ccccc2)CCC1(C)C` (some centres not stated), for which the GI50 with A498, in the test with A549, in the test on CAKI-1, with DU-145, with EKVX and with HL-60 was > 100 µM (inactive) in each case. Moreover, the GI50 with HT-29, with IGROV-1, in the test with K562, in the test with LOX IMVI, with MCF7 and with MDA-MB-231 was > 100 µM (inactive) throughout. In addition, the GI50 in the test with NCI/ADR-RES is > 100 µM (inactive); with RXF 393 it was > 100 µM (inactive); with SF-268, > 100 µM (inactive); in the test with SF-295, > 100 µM (inactive); with SN12C, > 100 µM (inactive); in the test on SNB-75 it was 9.86 µM (inactive).
Regarding `CC(NC(=N)N)C(=O)O` (configuration not stated), the GI50 with A498, with A549, with CAKI-1, in the test on DU-145, in the test on EKVX and in the test on HT-29 was > 100 µM (inactive) in each case. Also, the GI50 in the test on IGROV-1, with K562, in the test on LOX IMVI, in the test on MCF7, in the test on MDA-MB-231 and in the test with NCI-H522 was > 100 µM (inactive) throughout. Also, the GI50 in the test on NCI/ADR-RES, with RXF 393, in the test with SF-268, in the test on SF-295, in the test on SN12C and with SNB-75 was > 100 µM (inactive) throughout.
In the case of `O=C1/C(=N/c2ccccc2)Oc2cc(O)ccc21`, the GI50 in the test with A498, in the test with A549, with CAKI-1, with DU-145, in the test on EKVX and in the test with HT-29 was > 100 µM (inactive) each time. Moreover, the GI50 was > 100 µM (inactive) in the test with IGROV-1; > 100 µM (inactive) with K562; > 100 µM (inactive) with LOX IMVI; 56.4 µM (inactive) with MCF7; > 100 µM (inactive) in the test with MDA-MB-231; > 100 µM (inactive) in the test on NCI-H522. Further, the GI50 with NCI/ADR-RES, in the test on RXF 393, in the test on SF-268, with SF-295, in the test on SN12C and in the test with SNB-75 was > 100 µM (inactive) each time.
For the molecule `CCOP(=O)(OCC)C1CC(O)C(=O)N1` (configuration not stated), the GI50 with A498, in the test on A549, with DU-145, in the test on EKVX, in the test with HT-29 and in the test on IGROV-1 was > 100 µM (inactive) in each case. Moreover, the GI50 with K562, with LOX IMVI, in the test with MCF7, in the test with MDA-MB-231, with NCI/ADR-RES and with SF-268 was > 100 µM (inactive) in each case. Besides, the GI50 with SF-295, with SN12C and with SNB-75 was > 100 µM (inactive) in each case.
